Laboratory results taken from US10004701B2, “Methods and compositions for treating infection” (UNIVERSITY OF ROCHESTER, priority 2012, dated 2018).
Structures can show the parent of a compound that is named as a salt. Where two headings read alike, the source gives them in different places.

What was measured:
Assay in all cases: AK assay 384-well format, Prestwick library screening
[1] = test system: S. aureus strain USA300-0114; format: cell-based, Staphylococcus aureus; conditions: 50 μM final drug concentration; for fold induction at 50 µM: Staphylococcus aureus, USA300, 3 h
E. coli = format: cell-based, Escherichia coli; conditions: 50 μM final drug concentration; for fold induction at 50 µM: Escherichia coli, 3 h
[2] = test system: A. baumannii strain 98-37-09; format: cell-based, Acinetobacter baumannii; conditions: 50 μM final drug concentration; for fold induction at 50 µM: Acinetobacter baumannii, 983709, 3 h
K. pneumoniae = format: cell-based, Klebsiella pneumoniae; conditions: 50 μM final drug concentration; for fold induction at 50 µM: Klebsiella pneumoniae, 3 h
E. faecium = format: cell-based, Enterococcus faecium; conditions: 50 μM final drug concentration; for fold induction at 50 µM: Enterococcus faecium, 3 h
P. aeruginosa = format: cell-based, Pseudomonas aeruginosa; conditions: 50 μM final drug concentration; for fold induction at 50 µM: Pseudomonas aeruginosa, 3 h
E. cloacae = format: cell-based, Enterobacter cloacae; conditions: 50 μM final drug concentration; for fold induction at 50 µM: Enterobacter cloacae, 3 h

Fc1ccc(C(OCCN2CCN(CCCc3ccccc3)CC2)c2ccc(F)cc2)cc1 [GBR 12909 dihydrochloride]
fold induction at 50 µM ([1]; planktonic, cutoff for positive 3-fold increase, read-out: AK-based Prestwick Library Screening Results, S. aureus (fold increase in extracellular AK activity)): 1.5 | fold induction at 50 µM (E. coli; planktonic, cutoff for positive 3-fold increase, read-out: AK-based Prestwick Library Screening Results, E. coli (fold increase in extracellular AK activity)): 1.4 | fold induction at 50 µM ([2]; planktonic, cutoff for positive 3-fold increase, read-out: AK-based Prestwick Library Screening Results, A. baumannii (fold increase in extracellular AK activity)): 2.2 | fold induction at 50 µM (K. pneumoniae; planktonic, cutoff for positive 3-fold increase, read-out: AK-based Prestwick Library Screening Results, K. pneumoniae (fold increase in extracellular AK activity)): 1 | fold induction at 50 µM (E. faecium; planktonic, cutoff for positive 3-fold increase, read-out: AK-based Prestwick Library Screening Results, E. faecium (fold increase in extracellular AK activity)): 1.3 | fold induction at 50 µM (P. aeruginosa; planktonic, cutoff for positive 3-fold increase, read-out: AK-based Prestwick Library Screening Results, P. aeruginosa (fold increase in extracellular AK activity)): 1.2 | fold induction at 50 µM (E. cloacae; planktonic, cutoff for positive 3-fold increase, read-out: AK-based Prestwick Library Screening Results, E. cloacae (fold increase in extracellular AK activity)): 1.5

NCC1(CC(=O)O)CCCCC1 [Gabapentin]
fold induction at 50 µM ([1]; […], read-out: AK-based Prestwick Library Screening Results, S. aureus (fold increase in extracellular AK activity)): 1.5 | fold induction at 50 µM (E. coli; […], read-out: AK-based Prestwick Library Screening Results, E. coli (fold increase in extracellular AK activity)): 1.4 | fold induction at 50 µM ([2]; […], read-out: AK-based Prestwick Library Screening Results, A. baumannii (fold increase in extracellular AK activity)): 1.4 | fold induction at 50 µM (K. pneumoniae; […], read-out: AK-based Prestwick Library Screening Results, K. pneumoniae (fold increase in extracellular AK activity)): 1.1 | fold induction at 50 µM (E. faecium; […], read-out: AK-based Prestwick Library Screening Results, E. faecium (fold increase in extracellular AK activity)): 1 | fold induction at 50 µM (P. aeruginosa; […], read-out: AK-based Prestwick Library Screening Results, P. aeruginosa (fold increase in extracellular AK activity)): 1.3 | fold induction at 50 µM (E. cloacae; […], read-out: AK-based Prestwick Library Screening Results, E. cloacae (fold increase in extracellular AK activity)): 1.6

COc1ccc(-c2ccc(=N)n(CCCC(=O)O)n2)cc1 [Gabazine]
fold induction at 50 µM ([1]; planktonic S. aureus, cutoff for positive-scoring molecules 3-fold increase, read-out: AK-based Prestwick Library Screening Results, S. aureus (increase in extracellular AK activity)): 1.1 | fold induction at 50 µM (E. coli; planktonic E. coli, cutoff for positive-scoring molecules 3-fold increase, read-out: AK-based Prestwick Library Screening Results, E. coli (increase in extracellular AK activity)): 1 | fold induction at 50 µM ([2]; planktonic A. baumannii, cutoff for positive-scoring molecules 3-fold increase, read-out: AK-based Prestwick Library Screening Results, A. baumannii (increase in extracellular AK activity)): 1.1 | fold induction at 50 µM (K. pneumoniae; planktonic K. pneumoniae, cutoff for positive-scoring molecules 3-fold increase, read-out: AK-based Prestwick Library Screening Results, K. pneumoniae (increase in extracellular AK activity)): 0.8 | fold induction at 50 µM (E. faecium; planktonic E. faecium, cutoff for positive-scoring molecules 3-fold increase, read-out: AK-based Prestwick Library Screening Results, E. faecium (increase in extracellular AK activity)): 1.1 | fold induction at 50 µM (P. aeruginosa; planktonic P. aeruginosa, cutoff for positive-scoring molecules 3-fold increase, read-out: AK-based Prestwick Library Screening Results, P. aeruginosa (increase in extracellular AK activity)): 1 | fold induction at 50 µM (E. cloacae; planktonic E. cloacae, cutoff for positive-scoring molecules 3-fold increase, read-out: AK-based Prestwick Library Screening Results, E. cloacae (increase in extracellular AK activity)): 1.3

CCOC(=O)c1ccc(OC(=O)CCCCCN=C(N)N)cc1.CS(=O)(=O)O [Gabexate mesilate]
AK-based Prestwick library screening result, S. aureus (fold increase in extracellular AK activity) ([1]; planktonic S. aureus, positive cutoff 3-fold increase): 1.3 | AK-based Prestwick library screening result, E. coli (fold increase in extracellular AK activity) (E. coli; planktonic E. coli, positive cutoff 3-fold increase): 1.1 | AK-based Prestwick library screening result, A. baumannii (fold increase in extracellular AK activity) ([2]; planktonic A. baumannii, positive cutoff 3-fold increase): 1.1 | AK-based Prestwick library screening result, K. pneumoniae (fold increase in extracellular AK activity) (K. pneumoniae; planktonic K. pneumoniae, positive cutoff 3-fold increase): 0.9 | AK-based Prestwick library screening result, E. faecium (fold increase in extracellular AK activity) (E. faecium; planktonic E. faecium, positive cutoff 3-fold increase): 1.1 | AK-based Prestwick library screening result, P. aeruginosa (fold increase in extracellular AK activity) (P. aeruginosa; planktonic P. aeruginosa, positive cutoff 3-fold increase): 1.1 | AK-based Prestwick library screening result, E. cloacae (fold increase in extracellular AK activity) (E. cloacae; planktonic E. cloacae, positive cutoff 3-fold increase): 1.4

COc1ccc2c3c1O[C@H]1C[C@@H](O)C=C[C@@]31CCN(C)C2 [Galanthamine hydrobromide]
fold induction at 50 µM ([1]; planktonic S. aureus, […], read-out: AK-based Prestwick Library Screening Results, S. aureus (increase in extracellular AK activity)): 0.8 | fold induction at 50 µM (E. coli; planktonic E. coli, […], read-out: AK-based Prestwick Library Screening Results, E. coli (increase in extracellular AK activity)): 0.9 | fold induction at 50 µM ([2]; planktonic A. baumannii, […], read-out: AK-based Prestwick Library Screening Results, A. baumannii (increase in extracellular AK activity)): 0.8 | fold induction at 50 µM (K. pneumoniae; planktonic K. pneumoniae, […], read-out: AK-based Prestwick Library Screening Results, K. pneumoniae (increase in extracellular AK activity)): 0.8 | fold induction at 50 µM (E. faecium; planktonic E. faecium, […], read-out: AK-based Prestwick Library Screening Results, E. faecium (increase in extracellular AK activity)): 0.9 | fold induction at 50 µM (P. aeruginosa; planktonic P. aeruginosa, […], read-out: AK-based Prestwick Library Screening Results, P. aeruginosa (increase in extracellular AK activity)): 0.8 | fold induction at 50 µM (E. cloacae; planktonic E. cloacae, […], read-out: AK-based Prestwick Library Screening Results, E. cloacae (increase in extracellular AK activity)): 1

CC[N+](CC)(CC)CCOc1cccc(OCC[N+](CC)(CC)CC)c1OCC[N+](CC)(CC)CC [Gallamine triethiodide]
fold induction at 50 µM ([1]; planktonic S. aureus, 384-well, cutoff for positive-scoring molecules 3-fold increase, read-out: AK-based Prestwick Library Screening Results: S. aureus (increase in extracellular AK activity)): 1.1 | fold induction at 50 µM (E. coli; planktonic E. coli, 384-well, cutoff for positive-scoring molecules 3-fold increase, read-out: AK-based Prestwick Library Screening Results: E. coli (increase in extracellular AK activity)): 1.3 | fold induction at 50 µM ([2]; planktonic A. baumannii, 384-well, cutoff for positive-scoring molecules 3-fold increase, read-out: AK-based Prestwick Library Screening Results: A. baumannii (increase in extracellular AK activity)): 1.2 | fold induction at 50 µM (K. pneumoniae; planktonic K. pneumoniae, 384-well, cutoff for positive-scoring molecules 3-fold increase, read-out: AK-based Prestwick Library Screening Results: K. pneumoniae (increase in extracellular AK activity)): 1.1 | fold induction at 50 µM (E. faecium; planktonic E. faecium, 384-well, cutoff for positive-scoring molecules 3-fold increase, read-out: AK-based Prestwick Library Screening Results: E. faecium (increase in extracellular AK activity)): 1 | fold induction at 50 µM (P. aeruginosa; planktonic P. aeruginosa, 384-well, cutoff for positive-scoring molecules 3-fold increase, read-out: AK-based Prestwick Library Screening Results: P. aeruginosa (increase in extracellular AK activity)): 1 | fold induction at 50 µM (E. cloacae; planktonic E. cloacae, 384-well, cutoff for positive-scoring molecules 3-fold increase, read-out: AK-based Prestwick Library Screening Results: E. cloacae (increase in extracellular AK activity)): 1.5

Nc1nc(O)c2ncn(COC(CO)CO)c2n1 [Ganciclovir]
fold induction at 50 µM ([1]; planktonic, cutoff for positive-scoring molecules 3-fold increase, read-out: AK-based Prestwick Library Screening Results, S. aureus (fold increase in extracellular AK activity)): 0.9 | fold induction at 50 µM (E. coli; planktonic, cutoff for positive-scoring molecules 3-fold increase, read-out: AK-based Prestwick Library Screening Results, E. coli (fold increase in extracellular AK activity)): 0.9 | fold induction at 50 µM ([2]; planktonic, cutoff for positive-scoring molecules 3-fold increase, read-out: AK-based Prestwick Library Screening Results, A. baumannii (fold increase in extracellular AK activity)): 0.8 | fold induction at 50 µM (K. pneumoniae; planktonic, cutoff for positive-scoring molecules 3-fold increase, read-out: AK-based Prestwick Library Screening Results, K. pneumoniae (fold increase in extracellular AK activity)): 0.7 | fold induction at 50 µM (E. faecium; planktonic, cutoff for positive-scoring molecules 3-fold increase, read-out: AK-based Prestwick Library Screening Results, E. faecium (fold increase in extracellular AK activity)): 0.9 | fold induction at 50 µM (P. aeruginosa; planktonic, cutoff for positive-scoring molecules 3-fold increase, read-out: AK-based Prestwick Library Screening Results, P. aeruginosa (fold increase in extracellular AK activity)): 0.9 | fold induction at 50 µM (E. cloacae; planktonic, cutoff for positive-scoring molecules 3-fold increase, read-out: AK-based Prestwick Library Screening Results, E. cloacae (fold increase in extracellular AK activity)): 1.4

C=C[C@]12CN(C)[C@@H]3[C@H]4CO[C@H](C[C@H]41)[C@]1(C(=O)Nc4ccccc41)[C@@H]32 [Gelsemine]
fold induction at 50 µM ([1]; planktonic, […], read-out: AK-based Prestwick Library Screening Results, S. aureus (fold increase in extracellular AK activity)): 0.7 | fold induction at 50 µM (E. coli; planktonic, […], read-out: AK-based Prestwick Library Screening Results, E. coli (fold increase in extracellular AK activity)): 0.9 | fold induction at 50 µM ([2]; planktonic, […], read-out: AK-based Prestwick Library Screening Results, A. baumannii (fold increase in extracellular AK activity)): 0.7 | fold induction at 50 µM (K. pneumoniae; planktonic, […], read-out: AK-based Prestwick Library Screening Results, K. pneumoniae (fold increase in extracellular AK activity)): 0.7 | fold induction at 50 µM (E. faecium; planktonic, […], read-out: AK-based Prestwick Library Screening Results, E. faecium (fold increase in extracellular AK activity)): 0.9 | fold induction at 50 µM (P. aeruginosa; planktonic, […], read-out: AK-based Prestwick Library Screening Results, P. aeruginosa (fold increase in extracellular AK activity)): 0.9 | fold induction at 50 µM (E. cloacae; planktonic, […], read-out: AK-based Prestwick Library Screening Results, E. cloacae (fold increase in extracellular AK activity)): 0.9
